Measurements taken from ChEMBL document CHEMBL6092194, “Development of membrane-targeting chalcone derivatives as antibacterial agents against multidrug-resistant bacteria” (Eur J Med Chem, 2024).

Tests used:
[1] = system: Staphylococcus aureus; experiment: Antibacterial activity against erythromycin susceptible Staphylococcus aureus ATCC25923 by broth microdilution assay; format: functional
[2] = system: Acinetobacter baumannii; experiment: Antibacterial activity against Acinetobacter baumannii ATCC19606 by broth microdilution assay; format: functional
[3] = system: Bacillus subtilis; experiment: Antibacterial activity against penicillin-susceptible Bacillus subtilis ATCC9372 by broth microdilution assay; format: functional
[4] = system: Klebsiella pneumoniae; experiment: Antibacterial activity against Klebsiella pneumoniae ATCC10031 by broth microdilution assay; format: functional
[5] = system: Staphylococcus aureus; experiment: Antibacterial activity against penicillin-resistant Staphylococcus aureus ATCC43300 by broth microdilution assay; format: functional
[6] = Hemolytic activity in red blood cells (unknown origin); format: toxicity, cell-based, Erythrocyte
[7] = system: Escherichia coli; experiment: Antibacterial activity against penicillin-susceptible Escherichia coli ATCC25922 by broth microdilution method; format: functional
[8] = system: Pseudomonas aeruginosa; experiment: Antibacterial activity against penicillin-susceptible Pseudomonas aeruginosa ATCC27853 by broth microdilution method; format: functional
[9] = system: Enterococcus faecalis; experiment: Antibacterial activity against vancomycin susceptible Enterococcus faecalis ATCC29212 by broth microdilution assay; format: functional
[10] = system: Staphylococcus aureus; experiment: Antibacterial activity against penicillin-resistant Staphylococcus aureus ATCC31007 by broth microdilution assay; format: functional
[11] = system: Staphylococcus epidermidis; experiment: Antibacterial activity against erythromycin-susceptible Staphylococcus epidermidis ATCC12228 by broth microdilution assay; format: functional
[12] = Selectivity index, ratio of HC50 for hemolytic activity in red blood cells (unknown origin) to MIC for antibacterial activity against penicillin-resistant Staphylococcus aureus ATCC43300; format: toxicity, cell-based, RBC; details: read-out: Selectivity Index

| Structure (SMILES) | MIC [1] [µg/mL] | MIC [2] [µg/mL] | MIC [3] [µg/mL] | MIC [4] [µg/mL] | MIC [5] [µg/mL] | HC50 [6] [µg/mL] | MIC [7] [µg/mL] | MIC [8] [µg/mL] | MIC [9] [µg/mL] | MIC [10] [µg/mL] | MIC [11] [µg/mL] | selectivity ratio [12] |
| --- | --- | --- | --- | --- | --- | --- | --- | --- | --- | --- | --- | --- |
| CCCC[N+](C)(C)CCCOc1ccc(/C=C/C(=O)c2ccc(OCCC[N+](C)(C)CCCC)cc2)cc1.[Br-].[Br-] | 2 | > 128 | 8 | 128 | 8 | 590 | 128 | > 128 | 4 | 2 | 2 | 73.8 |
| CCCCCCCCOc1cc[n+](CCCOc2ccc(/C=C/C(=O)c3ccc(OCCC[n+]4ccc(OCCCCCCCC)cc4)cc3)cc2)cc1.[Br-].[Br-] | 64 | 128 | 64 | 64 | 32 | 180 | 128 | 128 | 64 | 64 | 32 | 5.6 |
| CCCCCCCCCCCCCC[N+](C)(C)CCCOc1ccc(/C=C/C(=O)c2ccc(OCCC[N+](C)(C)CCCCCCCCCCCCCC)cc2)cc1.[Br-].[Br-] | 64 | 128 | > 128 | 128 | 128 | 28.4 | > 128 | > 128 | > 128 | 64 | > 128 | 0.2 |
| CCCCCCCCNC(=O)C[N+](C)(C)CCCOc1ccc(/C=C/C(=O)c2ccc(OCCC[N+](C)(C)CC(=O)NCCCCCCCC)cc2)cc1.[Br-].[Br-] | 4 | 16 | 4 | 32 | 4 | 69.5 | 8 | 128 | 4 | 8 | 8 | 17.4 |
| CCCCCCCCCCOc1cc[n+](CCCOc2ccc(/C=C/C(=O)c3ccc(OCCC[n+]4ccc(OCCCCCCCCCC)cc4)cc3)cc2)cc1.[Br-].[Br-] | 128 | 32 | 128 | 16 | 128 | 161 | 128 | > 128 | 128 | 128 | 8 | 1.3 |
| CCCCCCCCCCCCNC(=O)C[N+](C)(C)CCCOc1ccc(/C=C/C(=O)c2ccc(OCCC[N+](C)(C)CC(=O)NCCCCCCCCCCCC)cc2)cc1.[Br-].[Br-] | > 128 | > 128 | 128 | > 128 | > 128 | 703 | > 128 | > 128 | > 128 | > 128 | > 128 | < 5.5 |
| CCCCCCCCCCCCCC[N+](C)(C)CCCOc1ccc(C(=O)/C=C/c2ccccc2)cc1.[Br-] | 8 | 128 | 32 | 128 | 32 | 39 | > 128 | > 128 | 32 | 64 | 16 | 9.8 |
| CCCC[N+](C)(C)CCCCCCCOc1ccc(C(=O)/C=C/c2ccccc2)cc1.[Br-] | 8 | 64 | 32 | 32 | 8 | 130 | > 128 | > 128 | 32 | 16 | 16 | 16.3 |
| CCCCNC(=O)C[N+](C)(C)CCCOc1ccc(/C=C/C(=O)c2ccc(OCCC[N+](C)(C)CC(=O)NCCCC)cc2)cc1.[Br-].[Br-] | 2 | > 128 | 4 | 32 | 8 | > 1280 | 16 | > 128 | 8 | 4 | 4 | > 160 |
| CCCCCCCCCC[N+](C)(C)CCCCCOc1ccc(C(=O)/C=C/c2ccccc2)cc1.[Br-] | 4 | 16 | 4 | 16 | 4 | 42 | 64 | > 128 | 4 | 4 | 8 | 10.5 |
| CCCCCCCCCC(=O)Nc1cc[n+](CCCOc2ccc(C(=O)/C=C/c3ccccc3)cc2)cc1.[Br-] | 4 | 64 | 2 | > 128 | 4 | 871 | 32 | > 128 | 8 | 4 | 16 | 218 |
| COc1ccc(CC(=O)Nc2cc[n+](CCCOc3ccc(C(=O)/C=C/c4ccccc4)cc3)cc2)cc1.[Br-] | 8 | 128 | 16 | 64 | 8 | 724 | 128 | > 128 | 16 | 16 | 128 | 90.5 |
| CCCCCCCCCCCC(=O)Nc1cc[n+](CCCOc2ccc(C(=O)/C=C/c3ccccc3)cc2)cc1.[Br-] | 8 | > 128 | > 128 | > 128 | 16 | 753 | > 128 | > 128 | 8 | 8 | 128 | 47.1 |
| CCCC[N+](C)(C)CCCCCOc1ccc(C(=O)/C=C/c2ccccc2)cc1.[Br-] | 8 | 128 | 32 | 64 | 32 | 538 | > 128 | > 128 | 32 | 64 | 16 | 16.8 |
| CC(C)=CC(=O)Nc1cc[n+](CCCOc2ccc(C(=O)/C=C/c3ccccc3)cc2)cc1.[Br-] | > 128 | > 128 | > 128 | > 128 | > 128 | > 1280 | > 128 | > 128 | > 128 | > 128 | > 128 | > 10 |
| CCCCCCNC(=O)C[N+](C)(C)CCCOc1ccc(/C=C/C(=O)c2ccc(OCCC[N+](C)(C)CC(=O)NCCCCCC)cc2)cc1.[Br-].[Br-] | 1 | 32 | 2 | 4 | 1 | 234 | 2 | 32 | 2 | 1 | 1 | 329 |
| CCCC[N+](C)(C)CCCOc1ccc(C(=O)/C=C/c2ccccc2)cc1.[Br-] | 16 | > 128 | 64 | 128 | 32 | 96.3 | 128 | > 128 | 64 | 64 | 16 | 3 |
| CCCCCCCC(=O)Nc1cc[n+](CCCOc2ccc(C(=O)/C=C/c3ccccc3)cc2)cc1.[Br-] | 2 | 128 | 2 | 16 | 2 | 887 | 32 | > 128 | 4 | 2 | 8 | 443 |
| CCCCCCCCCCCC[N+](C)(C)CCCOc1ccc(/C=C/C(=O)c2ccc(OCCC[N+](C)(C)CCCCCCCCCCCC)cc2)cc1.[Br-].[Br-] | 16 | > 128 | > 128 | > 128 | > 128 | 21.2 | > 128 | > 128 | > 128 | 16 | 64 | < 0.2 |
| CCCCCCCCCCCC[N+](C)(C)CCCCCCCOc1ccc(C(=O)/C=C/c2ccccc2)cc1.[Br-] | 16 | > 128 | 16 | > 128 | 16 | 47.4 | > 128 | > 128 | 32 | 64 | 16 | 3 |
| CCCC(=O)Nc1cc[n+](CCCOc2ccc(C(=O)/C=C/c3ccccc3)cc2)cc1.[Br-] | > 128 | > 128 | > 128 | > 128 | > 128 | > 1280 | > 128 | > 128 | > 128 | > 128 | > 128 | > 10 |
| CCCCOc1cc[n+](CCCOc2ccc(/C=C/C(=O)c3ccc(OCCC[n+]4ccc(OCCCC)cc4)cc3)cc2)cc1.[Br-].[Br-] | 1 | 128 | 1 | 8 | 4 | > 1280 | 16 | 64 | 0.5 | 2 | 1 | > 320 |
| CCCCCCCC[N+](C)(C)CCCCCOc1ccc(C(=O)/C=C/c2ccccc2)cc1.[Br-] | 2 | 8 | 4 | 8 | 2 | 50.5 | 128 | > 128 | 2 | 4 | 4 | 25.2 |
